According to PubChem BioAssay AID180 (DTP/NCI, 2004):
“And” between values parts separate entries of the source, which are not always exact repeats. Equal entries are not always repeated.

Tested on: BDF1 mice, Adenocarcinoma 755 s.c., tumor weight T/C
Experiment: NCI In Vivo Anticancer Drug Screen. Data for tumor model Adenocarcinoma 755 (subcutaneous) in B6D2F1 (BDF1) mice
Conditions: endpoint: mean tumor weight, schedule: Q01DX011 (ip), higher = larger tumour
Outline: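 Values express treated (T) relative to vehicle-dosed control (C) animals, based on survival or tumour size measured after compound treatment of mice bearing a transplanted tumour.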

[1] = dose: 50.0 mg/kg/injection, vehicle: carboxymethylcellulose (CMC)
[2] = dose: 100.0 mg/kg/injection, vehicle: carboxymethylcellulose (CMC)
[3] = dose: 200.0 mg/kg/injection, vehicle: carboxymethylcellulose (CMC)

O=C(Nc1ccc(C2=NCCN2)cc1)c1ccc(N=Nc2ccc(C(=O)Nc3ccc(C4=NCCN4)cc3)cc2)cc1
T/C (dose: 15.0 mg/kg/injection, vehicle: methylcellulose (MC)): 151 % of control | T/C (dose: 30.0 mg/kg/injection, vehicle: methylcellulose (MC)): 119 % of control | T/C (dose: 120.0 mg/kg/injection, vehicle: methylcellulose (MC)): 100 % of control

CNC(=O)C(C)C
T/C (dose: 31.2 mg/kg/injection, vehicle: other): 44 % of control | T/C (dose: 62.5 mg/kg/injection, vehicle: other): 90 % of control | T/C (dose: 125.0 mg/kg/injection, vehicle: other): 90 % of control | T/C (dose: 250.0 mg/kg/injection, vehicle: other): 77 % of control

CS(=O)(=O)c1nc(N)nc2nc[nH]c12
T/C (dose: 3.75 mg/kg/injection, vehicle: carboxymethylcellulose (CMC)): 81 % of control | T/C (dose: 7.5 mg/kg/injection, vehicle: carboxymethylcellulose (CMC)): 93 % of control and 81 % of control | T/C (dose: 30.0 mg/kg/injection, vehicle: carboxymethylcellulose (CMC)): 5 % of control and 12 % of control

COc1ccc(C(=O)OCC2OC(n3cnc4c(=S)nc(N)[nH]c43)C(OC(=O)c3ccc(OC)cc3)C2OC(=O)c2ccc(OC)cc2)cc1 (stereo unspecified)
T/C (dose: 25.0 mg/kg/injection, vehicle: carboxymethylcellulose (CMC)): 88 % of control | T/C [1]: 107 % of control | T/C [2]: 48 % of control | T/C [3]: 7 % of control

CCCC(=O)OCC1OC(n2cnc3c(=S)nc[nH]c32)C(OC(=O)CCC)C1OC(=O)CCC (stereo unspecified)
T/C (dose: 3.0 mg/kg/injection, vehicle: other): 48 % of control | T/C (dose: 3.12 mg/kg/injection, vehicle: other): 75 % of control | T/C (dose: 6.0 mg/kg/injection, vehicle: other): 16 % of control | T/C (dose: 6.25 mg/kg/injection, vehicle: other): 13 % of control | T/C (dose: 12.0 mg/kg/injection, vehicle: other): 6 % of control | T/C (dose: 12.5 mg/kg/injection, vehicle: other): 4 % of control

O=c1cn[nH]c(=O)[nH]1
T/C (dose: 110.1 mg/kg/injection, vehicle: carboxymethylcellulose (CMC)): 104 % of control | T/C (dose: 125.0 mg/kg/injection, vehicle: carboxymethylcellulose (CMC)): 66 % of control | T/C (dose: 220.2 mg/kg/injection, vehicle: carboxymethylcellulose (CMC)): 80 % of control | T/C (dose: 250.0 mg/kg/injection, vehicle: carboxymethylcellulose (CMC)): 107 % of control | T/C (dose: 440.4 mg/kg/injection, vehicle: carboxymethylcellulose (CMC)): 84 % of control | T/C (dose: 500.0 mg/kg/injection, vehicle: carboxymethylcellulose (CMC)): 87 % of control | T/C (dose: 880.8 mg/kg/injection, vehicle: carboxymethylcellulose (CMC)): 77 % of control | T/C (dose: 1000.0 mg/kg/injection, vehicle: carboxymethylcellulose (CMC)): 80 % of control

CN(Cc1ccccc1)N=Nc1n[nH]nc1C(N)=O
T/C [1]: 75 % of control | T/C [2]: 91 % of control | T/C [3]: 56 % of control

O=C(NP(=O)(N1CC1)N1CC1)OCc1ccccc1
T/C (dose: 0.38 mg/kg/injection, vehicle: saline): 68 % of control | T/C (dose: 0.75 mg/kg/injection, vehicle: saline): 35 % of control | T/C (dose: 1.5 mg/kg/injection, vehicle: saline): 53 % of control | T/C (dose: 2.25 mg/kg/injection, vehicle: other): 74 % of control | T/C (dose: 2.25 mg/kg/injection, vehicle: saline): 115 % of control | T/C (dose: 3.0 mg/kg/injection, vehicle: saline): 18 % of control and 35 % of control | T/C (dose: 4.5 mg/kg/injection, vehicle: other): 83 % of control | T/C (dose: 4.5 mg/kg/injection, vehicle: saline): 98 % of control | T/C (dose: 6.0 mg/kg/injection, vehicle: saline): 18 % of control | T/C (dose: 9.0 mg/kg/injection, vehicle: other): 52 % of control | T/C (dose: 9.0 mg/kg/injection, vehicle: saline): 56 % of control | T/C (dose: 12.0 mg/kg/injection, vehicle: saline): 2 % of control | T/C (dose: 18.0 mg/kg/injection, vehicle: other): 12 % of control | T/C (dose: 18.0 mg/kg/injection, vehicle: saline): 29 % of control | T/C (dose: 24.0 mg/kg/injection, vehicle: saline): 1 % of control
